This note sets out measurements from ChEMBL document CHEMBL3507680, “University of Dundee, Gates Library screen for HepG2 cell viability”.

Structures are written as SMILES.

This series in a line: Human HepG2 cell viability assay in 384 well format. Format: toxicity, cell-based. Further details: dose 125 nL, time 70.5 hour; cytotoxicity at 70.5 h: concentration not given beside the values. The note with it: HepG2 cells, read-out: Inhibition.

Turning to `CCC1(CC)Cc2ccccc2-c2nc(NCCCO)[nH]c(=O)c21`, the cytotoxicity at 70.5 h was -14.8%.
For `c1ccc(CN2CCC3(CC2)Nc2ccccc2CO3)cc1` the value was -6.59%.
For `CCC1(C)Cc2ccccc2-c2nc(NCCCO)nc(O)c21` (stereo not given) the value was -4.42%; for `COc1cc(N2CCCn3cnc(COCCO)c3C2)ncn1`, 0.488%.
For `c1cnc(N2CCO[C@H]3[C@H](OCCN4CCOCC4)CC[C@@H]32)nc1` the value was -2.53%; for `COc1cccc(CC(=O)N2CC[C@@H]3NC(=O)CC[C@@H]32)c1`, -0.893%; for `CC(C)NC(=O)C1CN(Cc2cccs2)Cc2ccnn2C1` (stereo not given), 3.45%.
With `Cc1ncsc1C(=O)N1CC[C@@H]2[C@@H](CC1)OCCN2c1cccnc1`, the cytotoxicity at 70.5 h was -8.57%.
As for `CC(=O)N1CCS(=O)(=O)[C@@H]2CCN(S(=O)(=O)CC(C)C)CC[C@@H]21`, the figure is -6.44%.
As for `COCc1nn(C)c2c1CN(C(=O)c1ccno1)CC2`, the figure is -9.37%.
As to `Cc1nocc1C(=O)N1CCCC2(CCN(c3ccsc3)C2=O)C1` (stereo not given), the cytotoxicity at 70.5 h is -6.39%.
As for `Cc1oncc1C(=O)N1CCCc2c(C#N)nn(C)c2C1`, the figure is -7.62%; as for `Cc1csc(CN2CC[C@H]3C[C@H](c4ccncn4)O[C@@H]3C2)n1`, -2.15%.
As for `CNC(=O)C1Cn2ccnc2C2(CCN(c3ccc(C)nn3)CC2)O1` (stereo not given), the figure is -0.593%.
As for `Cc1nc(CN2CCO[C@H]3CN(C(=O)c4cscn4)C[C@H]32)cs1`, the figure is -5.86%; as for `COCC1CC2(CCN(C(=O)c3ccc(F)cc3C)CC2)CO1` (stereo not given), -2.86%; as for `Cc1nc(CN2CC[C@H]3C[C@H](c4ccncn4)O[C@@H]3C2)cs1`, -3.68%.
Regarding `CNC(=O)C1Cn2ccnc2C2(CCN(C(=O)c3ccccn3)CC2)O1` (stereo not given), the cytotoxicity at 70.5 h was -2.1%.
For `Cc1ccc(C(=O)N2C[C@@H]3C[C@@H](c4nnc(C5CC5)o4)O[C@@H]3C2)s1` the value was -3.56%; for `O=C(c1ncccn1)N1C[C@@H]2COC[C@]2(COCc2cccnc2)C1`, -5.13%; for `O=C(O)c1nnn(-c2ccccc2F)c1-c1ccncc1`, 5.16%.
With `O=C(O)c1nnn(-c2ccccc2)c1-c1ccncc1`, the cytotoxicity at 70.5 h was -30.6%.
For `COc1ccc(N2CCN(CC(O)c3ccc(C)cc3C)CC2)cc1` (stereo not given) the value was -3.49%; for `CN1CCc2c(C#N)c(NCCc3ccccc3)n3cnnc3c2C1`, -12.4%; for `NC(=O)c1ccc(NC(=O)Cn2cc(I)cn2)cc1`, -13.1%.
As to `O=C(Cn1ccc2cc(Br)ccc21)NCc1ccc(C(=O)O)cc1`, the cytotoxicity at 70.5 h was -27.5%.
For `O=C(CCn1ccc2ccc(Br)cc21)NCc1ccc(C(=O)O)cc1` the value was -21.2%.
For `O=C(COc1coc(CN2CCSCC2)cc1=O)c1ccccc1` the value was -24.2%; for `O=C(Cn1ccc2ccc(Cl)cc21)NCc1ccc(C(=O)O)cc1`, -2.47%; for `COCCNc1c(C#N)c2c(c3nncn13)CN(C)CC2`, -5.01%.
In the case of `CCOc1ccc(NC(=O)Cn2cc(I)cn2)cc1`, the cytotoxicity at 70.5 h is -18.2%.
As for `CCOC(=O)c1ccc(NC(=O)Cn2cc(I)cn2)cc1`, the figure is -4.39%; as for `N#CCc1ccc(NC(=O)Cn2cc(I)cn2)cc1`, -9.71%.
As for `Cc1nc(-c2ccccc2)cc2nn(CC(N)=O)c(=O)n12`, the figure is -2.53%.
As for `CCN(CC)C(=O)Cn1c(-c2ccc(Cl)cc2)nc(C)c(CCO)c1=O`, the figure is 0.81%; as for `CC/N=c1\nc(NCC)nc2n1C(O)(Nc1cccc(C)c1C)CS2` (stereo not given), -6.29%.
Regarding `COc1ccc(-c2cc3nn(CC(N)=O)c(=O)n3c(C)n2)cc1`, the cytotoxicity at 70.5 h was -7.26%.
As for `Cc1nc(-c2ccc(Cl)cc2)n(CC(=O)NC(C)C)c(=O)c1CCO`, the figure is -8.99%; as for `COc1ccc(-c2cc3nn(CC(=O)NC(C)C)c(=O)n3c(C)n2)cc1`, 1.34%.
As to `O=c1[nH]nc2c(S(=O)(=O)N3CCCCCC3)cccn12`, the cytotoxicity at 70.5 h is -7.77%.
As for `O=c1[nH]nc2c(S(=O)(=O)N3CCCCC3)cccn12`, the figure is -0.253%; as for `CSc1nc2ncc3c(=O)n(C)ccc3n2n1`, -8.16%; as for `CCCc1nnc2sc(-c3cc(C(C)C)n[nH]3)nn12`, 15.4%.
For `c1ccc(-c2nnc3sc(CCN4CCCCCC4)nn23)cc1` the value was -11.1%; for `c1ccc2c(c1)COC1(CCCCC1)N2`, -4.51%; for `CC(C)Cc1nnc2sc(-c3cc(C(C)C)n[nH]3)nn12`, 12.3%.
As for `CC(=O)Nc1sc2c(c1C(=O)O)CCc1ccccc1-2`, the figure is -11.4%; as for `O=C(Cc1ccc2c(c1)OCCCO2)Nc1nnn[nH]1`, -6.98%.
For `O=C(Cc1ccc2c(c1)OCC2)Nc1nc(C(F)(F)F)n[nH]1`, the cytotoxicity at 70.5 h amounted to 0.788%.
`O=c1ccc(-c2ccccc2F)nn1CN1CCCCCC1`: the cytotoxicity at 70.5 h is -4.57%.
For `Cc1ccccc1CSc1ncc(Br)c(C(=O)O)n1` the value was -5.71%; for `Cc1ccc2c(c1)C(NC(C)C)CC21CCNCC1` (stereo not given), -1.86%; for `CN1CCc2c(C#N)c(NCC3CCCO3)n3cnnc3c2C1` (stereo not given), -5.45%.
Take `CCOc1ccc(Cl)cc1C1CCCCN1` (stereo not given): the cytotoxicity at 70.5 h is -17.3%.
For `Cc1ccc2c(c1)C1(CCNCC1)CC2NC(C)C` (stereo not given) the value was -2.54%; for `CC(C)NC1CC2(CCNCC2)c2cc(F)ccc21` (stereo not given), -2.34%.
With `CCOc1c(CNCCCn2ccnc2)cc(Cl)cc1OC`, the cytotoxicity at 70.5 h was -5.3%.
In the case of `CCOc1ccc(CNCCCn2ccnc2)cc1Cl`, the cytotoxicity at 70.5 h stood at 0.65%.
For `Cc1cccc(CN2Cc3[nH]nc(COCC4CC4)c3C2)n1` the value was 3.89%; for `COc1cccc(CN2CCC3(CCN(c4ncc(C)cn4)CC3)C2)c1`, 1.49%.
`O=C(CO[C@@H]1CC[C@H]2[C@H]1OCCN2c1ncccn1)N1CCCC1`: the cytotoxicity at 70.5 h is -0.322%.
For `Cc1cccc(CN2Cc3[nH]nc(COCc4nccs4)c3C2)n1` the value was -0.324%; for `Cc1ccc(N2CCO[C@H]3[C@H](OCC(=O)N4CCCC4)CC[C@@H]32)cc1`, -1.99%.
For `COc1cccc(CN2CCC3(CC2)CCN(c2ncc(F)cn2)C3)c1` the value was 0.909%; for `CNC(=O)COC1COC2(CCN(c3ccc(C)nn3)CC2)C1` (stereo not given), 0.115%.
For the compound `N#Cc1cccc(CN2CC3(CCCCN3c3cccnc3)CC2=O)c1` (stereo not given), the cytotoxicity at 70.5 h was -1.1%.
As for `CCS(=O)(=O)N1Cc2nnn(C)c2C(COCCN(C)C)C1` (stereo not given), the figure is -0.313%; as for `CC(C)CN1CCS(=O)(=O)[C@@H]2CCN(S(=O)(=O)c3ccccc3)CC[C@@H]21`, -1.95%; as for `COCCN1C(=O)CC[C@]12CC[C@@H](NCc1cccc(C)n1)CC2`, 0.785%.
`O=C(c1cc[nH]n1)N1CC[C@@H]2CN(Cc3ccccc3)S(=O)(=O)[C@@H]2CC1`: the cytotoxicity at 70.5 h is -13.3%.
For `CC(C)CN1CCS(=O)(=O)[C@@H]2CCN(S(=O)(=O)N(C)C)CC[C@@H]21` the value was -5.76%; for `COc1ccc(CN2CC[C@@H]3CN(S(C)(=O)=O)CCO[C@@H]3C2)cc1`, -2.97%.
For `CS(=O)(=O)N1CCCC12CCN(Cc1nccs1)CC2`, the cytotoxicity at 70.5 h is -3.49%.
Take `Cn1nc(COCC2CC2)c2c1CN(C(=O)c1ccno1)CC2`: the cytotoxicity at 70.5 h is -9.87%.
As for `COCCN1C(=O)CC[C@]12CC[C@@H](NCc1nccs1)CC2`, the figure is -6.2%; as for `CN1CCN(CC2CC2)C(=O)C12CCN(C(=O)c1ccnnc1)CC2`, -5.46%; as for `CS(=O)(=O)N1CCO[C@@H]2CN(Cc3ccc(F)cc3)CC[C@@H]2C1`, -4.41%.
For `CC(=O)N1CC[C@@H]2CN(Cc3ccncc3)S(=O)(=O)[C@@H]2CC1` the value was 0.262%.
For `CCS(=O)(=O)N1CC[C@@H]2[C@H](CC1)N(CC(C)C)CCS2(=O)=O` the value was -1.74%; for `Cc1ccc(C(=O)N2CCO[C@H]3[C@H](OCc4ccccn4)CC[C@@H]32)o1`, -3.92%.
Turning to `CS(=O)(=O)N1CC[C@]2(C[C@@H](Oc3ccccn3)CO2)C1`, the cytotoxicity at 70.5 h is -3.36%.
In the case of `CS(=O)(=O)N1CCC2(CC1)CC(Oc1ccccn1)CO2` (stereo not given), the cytotoxicity at 70.5 h is -3.34%.
In the case of `Cc1ccc(C(=O)N2CCO[C@H]3[C@H](OCCN(C)C)CC[C@@H]32)o1`, the cytotoxicity at 70.5 h is -4.42%.
`Cc1ccc(CN2CCOCC3(C2)CN(c2ccc(C)s2)C(=O)CO3)o1` (stereo not given): the cytotoxicity at 70.5 h turned out to be 0.222%.
`COc1cccc(CN2CCC3(CC2)CCN(c2ncccn2)C3)c1`: the cytotoxicity at 70.5 h was 2.21%.
For `Cc1cc(CN2C[C@@H]3CCCO[C@@H]3[C@H](N(C)C(C)C)C2)no1` the value was -3.76%.
As for `Cc1ncsc1CN1C[C@@H]2CCCO[C@@H]2[C@H](N(C)C(C)C)C1`, the figure is -4.74%.
In the case of `O=C(c1cnccn1)N1CCCC2(CCN(Cc3cccnc3)C2)C1` (stereo not given), the cytotoxicity at 70.5 h was -4.19%.
For `COCCN1C[C@@H]2CN(Cc3ccoc3)CCC[C@]2(C(=O)O)C1` the value was -1.11%; for `O=C1COC2(COCCN(Cc3cccnc3)C2)CN1c1ccccc1` (stereo not given), -0.932%.
Regarding `COc1ncccc1CN1C[C@@H]2OCCN(CCN(C)C)[C@@H]2C1`, the cytotoxicity at 70.5 h is -3.67%.
`COc1ccc2c(c1)C1(CCN(Cc3cccnc3)CC1)N(C)CC2`: the cytotoxicity at 70.5 h was -1.98%.
For `COc1cc(N2CCCn3cnc(COC(C)C)c3C2)ncn1` the value was 13.3%.
As for `O=C(CN(C1=NCCCCC1)c1ccc(Cl)cc1)c1ccccc1`, the cytotoxicity at 70.5 h was 10.9%.
For the compound `Cc1cccc(N(CC(=O)c2ccccc2)C2=NCCCCC2)c1`, the cytotoxicity at 70.5 h is -11.4%.
